Results on 24 compounds are retold here after patent US4946855A, “Carboxamide derivatives having tetrazole and thiazole rings and their use” (Sawai Pharmaceutical Co., Ltd., priority 1987, dated 1990).

The inhibition in vivo is how much of the control response was suppressed. Low values mean little suppression, high ones strong suppression.

SMILES strings stand for the structures.

Common to all, as to assay type: in vivo, rat (Wistar strain male)
Assay [1] concerns 48-Hours PCA (passive cutaneous anaphylaxis). Put plainly: Test Example 2: Anti-passive cutaneous anaphylaxis (PCA) activity in rats, 48-Hours PCA (Ib compounds). The conditions noted are these: Rattus norvegicus, po, P.O., 1 hour before the elicitation. Here is the method:
(§1) Anti-passive cutaneous anaphylaxis (PCA) activity in rats (Materials and Method)
(§2) Wistar strain male rats (6 weeks old) were purchased from Shizuoka Experimental Animal Agricultural Cooperative (Japan), habituated to a breeding environment for 1 week before using for the experiment.
(§3) (2) Preparation of antiserum
(§4) Preparation of antiserum was carried out according to the method described in J. Immunol. 106, 1002-1011 (1971).
(§5) Thus, Ascaris suum extract was dinitrophenylated (DNP-As) and infused subcutaneously together with dead Bordetella pertussis at four sites on the foot-pad of the Wistar strain male rats. After 5 days, the rats were boostered with DNP-As (1 mg) at the dorsal muscle for additional sensitization. After 3 days, blood samples were collected and serum was separated which was used as anti DNP-As antiserum. The titer of the antiserum was measured by rats 48-hours PCA and found to be 1:200.
(§6) Rats were sensitized with 35 times dilution of anti DNA-As antiserum administered at two sites in the pre-clipped right dorsal skin. After 48 hours, DNP-As (500 μg in 0.5% Evans blue-physiological saline (1 ml) was administered into caudal vein to elicit the reaction. Then, 30 minutes later, the animals were decapitated, the dorsal skin was peeled, two sensitized areas as well as one control area were cut off and analyzed for Evans blue exudation which was used as an indivative of the reaction according to the method disclosed in Microbiol. Immunol. 22, 89-101 (1978). Thus, cut skins were treated with 1N-KOH (1 ml) and incubated at 37° C. for 16 hours to dissolve the skin tissue. A mixed solution (9 ml) of 0.6N-phosphoric acid-acetone (5: 13) was added and the mixture was centrifuged (300 r.p.m.) for 15 minutes. The supernatant was assayed for absorption at 620 nm and the exudation of Evans blue was determined. Test compounds (I) of the present invention were administered perorally as a suspension in 0.5% tragacanth 1 hour before the elicitation.

Assay [2] has the same test system. Put plainly: Test Example 1: Anti-passive cutaneous anaphylaxis (PCA) activity in rats, 48-Hours PCA (Ia compounds). Particulars: Rattus norvegicus, po, 1 hour before the elicitation; for inhibition in vivo at 15 mg/kg / inhibition in vivo at 25 mg/kg: perorally. Here is the method:
as §1, §2, §3, §4, §5
as §6, with “μg in 0.5 % Evans blue-physiological” for “μg in 0.5% Evans blue-physiological”

For assay [3] the test system is unchanged. Put plainly: Test Example 3: Anti-passive cutaneous anaphylaxis (PCA) activity in rats, 48-Hours PCA (Ic compounds). The conditions noted are these: P.O., 1 hour before the elicitation. Here is the method: as §1, §2, §3, §4, §5
as §6, with “with” for “with 1N-KOH”, “mil)” for “ml) and”, “0.6 N-phosphoric” for “0.6N-phosphoric”

In turn, `COc1ccc(-c2csc(C(=O)Nc3nnn[nH]3)n2)cc1` [Ib-14, 4-(4-methoxyphenyl)-N (1H-tetrazole-5-yl)-2-thiazolecarboxamide] registered an inhibition in vivo at 30 mg/kg in assay [1] of 50%.

On to `O=C(Nc1csc(-c2cccnc2)n1)c1nnn[nH]1` [Ia-23, N-(2-(3-Pyridyl)-4-thiazolyl)-1H-tetrazole-5-carboxamide], for which the inhibition in vivo at 15 mg/kg in assay [2] was 40%.

For `Cc1nc(NC(=O)c2nnn[nH]2)cs1` [Ia-1, N-(2-Methyl-4-thiazolyl)-1H-tetrazole-5-carboxamide], in assay [2], 15 mg/kg produced 60% inhibition in vivo.

For `Cc1ccc(-c2nc(C)c(C(=O)Nc3nnn[nH]3)s2)cc1` [Ic-5, 4-methyl-2-(4-methylphenyl)-N-(1H-tetrazole-5-yl)-5-thiazolecarboxamide], the “Inhibition (%)” value in assay [3] (30 mg/kg) was 49%.

As for `COc1ccc(-c2nc(NC(=O)c3nnn[nH]3)cs2)cc1` [Ia-8], the inhibition in vivo at 15 mg/kg in assay [2] amounted to 80%.

With `COc1ccc(-c2nc(C)c(C(=O)Nc3nnn[nH]3)s2)cc1` [Ic-6, 2-(4-Methoxyphenyl)-4-methyl-N-(1H-tetrazole-5-yl)-5-thiazolecarboxamide], in assay [3] (30 mg/kg), the “Inhibition (%)” value turned out to be 56%.

On to `Cc1ccc(-c2nc(NC(=O)c3nnn[nH]3)cs2)cc1` [Ia-5], for which, in assay [2], the inhibition in vivo at 25 mg/kg turned out to be 90%.

Compound `O=C(Nc1csc(-c2ccc(Cl)cc2)n1)c1nnn[nH]1` [Ia-15, N-(2-(4-chlorophenyl)-4-thiazolyl)-1H-tetrazole-5-carboxamide] came in with an inhibition in vivo at 15 mg/kg in assay [2] of 50%.

As to `Cc1ccc(-c2nc(NC(=O)c3nnn[nH]3)c(C)s2)cc1` [Ia-19, N-(2-(4-methylphenyl)-5-methyl-4-thiazolyl)-1H-tetrazole-5-carboxamide], in assay [2], the inhibition in vivo at 25 mg/kg is 61%.

Take `Cc1cccc(-c2nc(NC(=O)c3nnn[nH]3)cs2)c1` [Ia-4, N-(2-(3-methylphenyl)-4-thiazolyl)-1H-tetrazole-5-carboxamide]: the inhibition in vivo at 15 mg/kg in assay [2] was found to be 39%.

As to `COc1ccc(-c2csc(NC(=O)c3nnn[nH]3)n2)cc1` [Ib-4], testing at 20 mg/kg in assay [1] gave an inhibition in vivo of 92%.

On to `CC(C)c1ccc(-c2nc(NC(=O)c3nnn[nH]3)cs2)cc1` [Ia-16, N-(2-(4-(1-methylethyl)phenyl)-4-thiazolyl) 1H-tetrazole-5-carboxamide], for which the inhibition in vivo at 15 mg/kg in assay [2] came out at 46%.

Consider `O=C(Nc1csc(-c2ccc3ccccc3n2)n1)c1nnn[nH]1` [Ia-26, N-(2-(2-quinolyl)-4-thiazolyl)-1H-tetrazole-5-carboxamide], for which testing at 15 mg/kg in assay [2] gave an inhibition in vivo of 42%.

The compound `O=C(Nc1csc(-c2cccs2)n1)c1nnn[nH]1` [Ia-25, N-(2-(2-thienyl)-4-thiazolyl)-1H-tetrazole-5-carboxamide] registered an inhibition in vivo at 15 mg/kg in assay [2] of 43%.

For the compound `Cc1ccccc1-c1nc(NC(=O)c2nnn[nH]2)cs1` [Ia-3, N-(2-(2-methylphenyl)-4-thiazolyl)-1H-tetrazole-5-carboxamide], in assay [2], the inhibition in vivo at 15 mg/kg came out at 78%.

Turning to `CC(C)(C)c1ccc(-c2nc(NC(=O)c3nnn[nH]3)cs2)cc1` [Ia-17, N-(2-(4-(1,1-dimethylethyl)phenyl)-4-thiazolyl)-1H-tetrazole-5-carboxamide], the inhibition in vivo at 15 mg/kg in assay [2] stood at 47%.

`Cc1sc(NC(=O)c2nnn[nH]2)nc1-c1ccccc1` [Ib-12, N-(5-methyl-4-phenyl-2-thiazolyl)-1H-tetrazole-5-carboxamide] showed an inhibition in vivo at 20 mg/kg in assay [1] of 51%.

For `Cc1ccc(-c2csc(C(=O)Nc3nnn[nH]3)n2)cc1` [Ib-13, 4-(4-Methylphenyl)-N-(1H-tetrazole-5-yl)-2-thiazolecarboxamide], at 30 mg/kg the inhibition in vivo in assay [1] was 60%.

For the compound `COc1ccc(-c2nc(C)c(NC(=O)c3nnn[nH]3)s2)cc1` [Ic-14, N-(2-(4-Methoxyphenyl)-4-methyl-5-thiazolyl)-1H-tetrazole-5-carboxamide], in assay [3] (30 mg/kg), the “Inhibition (%)” value worked out at 50%.

Regarding `COc1ccc(/C=C/C(=O)Nc2ccccc2C(=O)O)cc1OC` [Tranilast, reference compound], the inhibition in vivo at 50 mg/kg in assay [2] (50 mg/kg) and in assay [1] (50 mg/kg) was 0% throughout. Further, in assay [3] (50 mg/kg), the “Inhibition (%)” value was determined as 0%.

`Cc1ccc(-c2csc(NC(=O)c3nnn[nH]3)n2)cc1` [Ib-5, N-(4-(4-Methylphenyl)-2-thiazolyl)-1H-tetrazole-5-carboxamide] showed an inhibition in vivo at 20 mg/kg in assay [1] of 89%.

Compound `O=C(Nc1nc(-c2ccc(Cl)cc2)cs1)c1nnn[nH]1` [Ib-7, N-(4-(4-chlorophenyl)-2-thiazolyl)-1H-tetrazole-5-carboxamide] showed an inhibition in vivo at 20 mg/kg in assay [1] of 70%.

Compound `O=C(Nc1nc(-c2ccccc2)cs1)c1nnn[nH]1` [Ib-1, N-(4-phenyl-2-thiazolyl)-1H-tetrazole-5-carboxamide] had an inhibition in vivo at 20 mg/kg in assay [1] of 66%.

`Cc1ccc(-c2nc(C)c(NC(=O)c3nnn[nH]3)s2)cc1` [Ic-13, N-(4-methyl-2-(4-methylphenyl)-5-thiazolyl)-1H-tetrazole-5-carboxamide]: in assay [3] (30 mg/kg), the “Inhibition (%)” value was found to be 52%.
